Data on six compounds can be found in patent US4423071A, “Polyol derivatives, processes for preparing the same and their uses in therapeutics” (Sanofi, priority 1979, dated 1983).

In general, LD50 refers to the dose expected to kill half of the subjects tested. Read a high LD50 as a less toxic substance.

Entries after “also recorded” stand apart in the source; their conditions may differ. Like-named read-outs stand apart in the source and are kept apart here.

Details of data set [1]: species or system humans. Conditions: in vivo. As for the experimental part:
FIG. 8: represents blood-levels in di-n-propylacetic acid obtained from:
(a) An oral dose of 600 mg of glyceryl 1-(di-n-propylacetate) (Curve 1)
(b) An oral dose of 476 mg of glyceryl 1,2-bis-(-di-n-propylacetate) (Curve 2)
(c) An oral dose of 460 mg of sodium di-n-propylacetate (Curve 3)
FIG. 9: represents the blood-levels in di-n-propylacetic acid obtained from the oral administration of 1000 mg of glyceryl 1,2-bis-(di-n-propylacetate) every 24 hours for 4 days.
FIG. 10: represents the blood-levels in di-n-propylacetic acid obtained from:
(a) An oral dose of 1000 mg of mixtures of glyceryl 1,2-bis-(di-n-propylacetate)/glyceryl 1,3-bis-(di-n-propylacetate)
("Mixtures A and B" referred to above) (Curves 1 to 5)
(b) An oral dose of 1000 mg of sodium di-n-propylacetate (Curve 6)
FIG. 11: represents the blood-levels in di-n-propylacetic acid obtained from an oral dose of 1000 mg of 1,2-propanediol bis-(di-n-propylacetate).

Data set [2] in a line: Pharmacokinetic trials with animals (species not specified), release of parent acid. It counts as in vivo, animal.
For data set [3], the system named is rats. In words: Acute toxicity tests in rats. The note with it: rat, in vivo. The text has this:
(§1) The results of acute toxicity tests obtained with compounds of the invention are given below:

The subject of data set [4] is Chronic cobalt-induced epilepsy. In words: Chronic cobalt-induced epilepsy. It counts as in vivo, rats. Conditions: 14 days i.p., sodium salt 2 x 200 mg/kg daily, Mixture A 400 mg/kg daily. The method, then:
This trial was performed in comparison with sodium di-n-propylacetate. Batches of rats were given for 14 days either two daily intraperitoneal doses of 200 mg/kg (morning and evening) of sodium di-n-propylacetate or a daily intraperitoneal dose of 400 mg/kg (evening) of a mixture of glyceryl 1,2- and 1,3-bis-(di-n-propylacetates) ("Mixture A").

Data set [5] is described as follows: Acute toxicity tests in rats. Conditions: rat, in vivo; rats, oral route.
From the text: as §1

The nature of data set [6]: Acute toxicity tests in mice. The note with it: mouse, in vivo, oral route.
Data set [7] deals with Pentylenetetrazol-induced seizure. In words: Pentylenetetrazol-induced seizure (anticonvulsant action). Format: in vivo. The note with it: rats, oral, ester 600 mg/kg, acid 100 mg/kg, pentylenetetrazol 125 mg/kg i.p. As for the experimental part:
The results of trials performed with such di-n-propylacetyl derivatives in order to determine the anticonvulsant action are set out below.
The anticonvulsant action was determined using pentylenetetrazol as convulsant agent.
Batches of 10 rats were treated by oral route with a dose of 600 mg/kg of glyceryl 1-(di-n-propylacetate).
At various times after administration, the animals received an intraperitoneal dose of 125 mg/kg of pentylenetetrazol.
The percentage of protection against the convulsive seizure was then determined at each of the times in question.
A similar trial was carried out with 100 mg/kg of di-n-propylacetic acid.
This dose represents the amount of di-n-propylacetic acid required to provide a di-n-propylacetic acid blood-level equivalent to the maximum level obtained with 600 mg/kg of glyceryl 1-(di-n-propylacetate). The results obtained are given in the following Table in which are shown the percentage of protection achieved at the various times indicated: […]

On the set-up of data set [8]: species or system rats. Conditions: rat, in vivo, po, 600 mg/kg. As for the experimental part:
The first series of drawings represent blood-levels in acid of formula I above in relation to time, this acid being either released from a salt thereof or from an ester of the invention.
FIG. 1: represents blood-levels in di-n-propylacetic acid obtained from:
(a) An oral dose to rats of 600 mg/kg of either: glyceryl 1-(di-n-propylacetate) (Curve 1) or glyceryl 1,2-bis-(di-n-propylacetate) (Curve 2) or glyceryl 1,3-bis-(di-n-propylacetate) (Curve 3)
(b) An intravenous dose to rats of 200 mg/kg of sodium di-n-propylacetate (Curve 4) […] FIG. 6: represents blood-levels in di-n-propylacetic acid obtained from: […]
(b) An intravenous dose to rats of 200 mg/kg of sodium di-n-propylacetate (Curve 3) FIG. 7: represents blood-levels in di-n-propylacetic acid obtained from:
1,4-butanediol bis-(di-n-propylacetate) (Curve 1) or 2-buten-1,4-diol bis-(di-n-propylacetate) (cis isomer) (Curve 2) or 2-butyn-1,4-diol bis-(di-n-propylacetate) (Curve 3)

The conditions of data set [9]: in vivo; cited from earlier work.

On to `CCCC(CCC)C(=O)OCC(CO)OC(=O)C(CCC)CCC` (stereo not shown) [glyceryl 1,2-bis-(di-n-propylacetate), Glyceryl 1,2-bis-(di-n-propylacetate)], for which the “slow-release of di-n-propylacetic acid in the human body” value (“slow-release of di-n-propylacetic acid” below) in data set [1] (po) is on record as “can provide the slow-release of di-n-propylacetic acid in the human body to a degree which enables therapeutic blood-levels in this acid to be attained”. Further, the “release of di-n-propylacetic acid in the animal organism” value (from here on “release … in the animal organism”) in data set [2] was “possess the requisite qualities to enable di-n-propylacetic acid to be released in the animal organism at a decreasing rate”. Besides, the LD0 in data set [3] (ip) was more than 2000 mg/kg; in data set [3] (po) it was more than 5000 mg/kg.
As for `CCCC(CCC)C(=O)[O-].[Na+]` [sodium di-n-propylacetate, reference compound], the “apparent half-life of di-n-propylacetic acid” value in data set [1] (human, po) is recorded as 11 h 35 min h min. The “Number of seizures between the 7th and 14th day” value in data set [4] (controls 3.57) is recorded as 1.25. The “Number of rats presenting at least one seizure” value in [4] (controls 7/7) is recorded as 3/4. The LD50 came to 1530 mg/kg in data set [5] and 1700 mg/kg in data set [6].
With `CCCC(CCC)C(=O)O` [di-n-propylacetic acid, reference compound], the “percentage of protection against the convulsive seizure” value in [7] (0.5 h) is 23%; in [7] (1 h) it was 0%; in [7] (2 h), 0%; in data set [7] (4 h) it was 0%; in data set [7] (8 h), 0%; in data set [7] (16 h), 0%.
For the compound `CCCC(CCC)C(=O)OCC(O)CO` (stereo not shown) [glyceryl 1-(di-n-propylacetate), Glyceryl 1-(di-n-propylacetate)], the “metabolism to glycerol and di-n-propylacetic acid” value in data set [1] is recorded as “too rapid”. Further, in [1] (po), the “slow-release of di-n-propylacetic acid” value is recorded as “quite unable to induce a slow-release in di-n-propylacetic acid in the blood”. For the same compound, the “blood-levels in di-n-propylacetic acid (FIG. 1)” value in data set [8] is “resists the rapid elimination of this acid and maintains a high blood-level in this acid”. Moreover, in [2], the “release … in the animal organism” value is “possess the requisite qualities to enable di-n-propylacetic acid to be released in the animal organism at a decreasing rate”. Moreover, the “percentage of protection against the convulsive seizure” value in data set [7] (0.5 h) was 29%; in data set [7] (1 h), 56%; in data set [7] (2 h), 41%; in data set [7] (4 h), 43%; in data set [7] (8 h), 35%; in data set [7] (16 h), 22%. Moreover, the LD50 in data set [5] came to 2360 mg/kg; in data set [6] it was 3360 mg/kg.
With `CCCC(CCC)C(=O)OCC(O)COC(=O)C(CCC)CCC` [glyceryl 1,3-bis-(di-n-propylacetate), Glyceryl 1,3-bis-(di-n-propylacetate)], in data set [1], the “bioavailability compared with the 1,2-diester” value is reported as “better bioavailability than that of the corresponding 1,2-diester” and the “blood-levels in di-n-propylacetic acid compared with the 1,2-diester” value is listed as “Very similar results”. Besides, the “slow-release of di-n-propylacetic acid” value in data set [1] (po) is on record as “can provide the slow-release of di-n-propylacetic acid in the human body to a degree which enables therapeutic blood-levels in this acid to be attained”. Further, the “release … in the animal organism” value in [2] is “possess the requisite qualities to enable di-n-propylacetic acid to be released in the animal organism at a decreasing rate”.
For the compound `CCCC(CCC)C(=O)OCC(COC(=O)C(CCC)CCC)OC(=O)C(CCC)CCC` [glyceryl tri-(di-n-propylacetate)], the bioavailability result in data set [1] (po) is listed as “poor bioavailability”. Also, in data set [8], the bioavailability result is recorded as “poor bioavailability”, the “maximum blood-levels in di-n-propylacetic acid” value was not above 10 µg/mL, the “time until di-n-propylacetic acid appeared in the blood” value is not below 150 min and the “value as a slow-release form of di-n-propylacetic acid” value was “of no value as a slow-release form of di-n-propylacetic acid”. In addition, in [9], the “slow-release properties as reported in the literature” value is given as “a remarkably useful substance which has all the properties expected of a slow-release preparation; also recorded: can act as a slow-release form of di-n-propylacetic acid”.
